# Experimental data as given in ChEMBL document CHEMBL1201862, “PubChem BioAssay data set” (2004).
# Activity calls are given as the source filed them. For most assays here, no stated cut-off is given here; in the data, actives have a measured IC50 and inactives only a lower limit.
# Tests used:
# [1] = biological target: Alkaline phosphatase, placental type (Homo sapiens, UniProt P05187); assay: human placental alkaline phosphatase inhibition – biochemical, luminescence, confirmation (AID 1512); assay type: functional
# Alkaline phosphatase, placental type, sequence (P05187 whole entry): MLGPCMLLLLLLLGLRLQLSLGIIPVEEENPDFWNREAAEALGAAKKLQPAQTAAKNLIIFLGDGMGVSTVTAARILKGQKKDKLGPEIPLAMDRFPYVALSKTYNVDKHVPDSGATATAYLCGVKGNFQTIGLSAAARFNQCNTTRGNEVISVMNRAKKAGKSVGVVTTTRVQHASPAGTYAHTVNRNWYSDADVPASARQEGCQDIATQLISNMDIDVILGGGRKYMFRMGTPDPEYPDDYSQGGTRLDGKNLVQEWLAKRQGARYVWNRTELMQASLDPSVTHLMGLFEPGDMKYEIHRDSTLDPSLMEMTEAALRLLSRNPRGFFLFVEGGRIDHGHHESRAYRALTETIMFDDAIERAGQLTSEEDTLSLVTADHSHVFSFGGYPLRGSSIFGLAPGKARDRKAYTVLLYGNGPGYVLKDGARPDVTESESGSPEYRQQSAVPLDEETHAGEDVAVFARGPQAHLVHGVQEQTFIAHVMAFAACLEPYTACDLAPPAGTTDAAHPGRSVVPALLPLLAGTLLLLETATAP
# [2] = biological target: T1, Alkaline phosphatase, tissue-nonspecific isozyme (Homo sapiens, UniProt P05186); assay: potency against alkaline phosphatase TNAP – biochemical, luminescent, dose response, SAR follow-up (AID 1056)
# T1 sequence (P05186 whole entry): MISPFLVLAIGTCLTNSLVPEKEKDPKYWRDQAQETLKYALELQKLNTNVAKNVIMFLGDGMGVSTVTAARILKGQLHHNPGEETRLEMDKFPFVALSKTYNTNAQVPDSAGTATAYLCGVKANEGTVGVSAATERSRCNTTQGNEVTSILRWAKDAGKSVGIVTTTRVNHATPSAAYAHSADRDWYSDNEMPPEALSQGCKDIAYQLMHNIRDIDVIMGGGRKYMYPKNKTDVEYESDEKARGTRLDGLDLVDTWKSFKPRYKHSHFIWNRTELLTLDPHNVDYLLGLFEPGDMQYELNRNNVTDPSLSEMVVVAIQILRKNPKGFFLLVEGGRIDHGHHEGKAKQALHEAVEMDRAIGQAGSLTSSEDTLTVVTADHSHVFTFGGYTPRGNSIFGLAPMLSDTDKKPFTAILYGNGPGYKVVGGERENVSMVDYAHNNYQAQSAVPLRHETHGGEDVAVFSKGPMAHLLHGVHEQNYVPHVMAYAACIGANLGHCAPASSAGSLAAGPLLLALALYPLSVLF
# [3] = biological target: T2, Carboxy-terminal domain RNA polymerase II polypeptide A small phosphatase 1 (Homo sapiens, UniProt Q9GZU7); assay: CTDSP1 inhibitors, concentration-response, biochemical, absorbance readout, ultra-high-throughput screen actives (AID 540297); assay type: functional
# T2 sequence (Q9GZU7 whole entry): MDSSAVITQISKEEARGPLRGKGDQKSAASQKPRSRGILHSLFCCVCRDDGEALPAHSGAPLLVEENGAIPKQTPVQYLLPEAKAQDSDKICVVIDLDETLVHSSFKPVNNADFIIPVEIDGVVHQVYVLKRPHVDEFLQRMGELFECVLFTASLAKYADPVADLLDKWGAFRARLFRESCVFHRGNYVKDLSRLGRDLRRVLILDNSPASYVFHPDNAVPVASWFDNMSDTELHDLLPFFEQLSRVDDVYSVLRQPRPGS
# SUMO E1/E2 = SUMO E1/E2 (Homo sapiens, UniProt P63279+Q9UBE0+Q9UBT2); assay: SAR analysis of SUMOylation using HTRF in an in-Vitro dose response assay. [Related pubchem assays (depositor defined):AID2006, AID2011, AID2018, AID2069, AID2658]; assay type: functional
# SUMO E1/E2, sequence (Q9UBE0 whole entry): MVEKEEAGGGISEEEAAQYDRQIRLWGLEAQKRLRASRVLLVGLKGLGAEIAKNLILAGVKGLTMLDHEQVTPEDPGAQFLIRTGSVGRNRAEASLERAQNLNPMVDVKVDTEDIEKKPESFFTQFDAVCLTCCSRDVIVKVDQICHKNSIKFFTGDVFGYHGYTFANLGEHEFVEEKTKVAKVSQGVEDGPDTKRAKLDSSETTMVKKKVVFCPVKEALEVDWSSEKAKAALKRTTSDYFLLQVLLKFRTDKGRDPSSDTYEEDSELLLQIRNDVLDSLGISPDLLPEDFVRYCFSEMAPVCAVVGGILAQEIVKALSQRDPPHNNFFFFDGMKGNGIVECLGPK
# SUMO E1/E2, sequence (Q9UBT2 whole entry): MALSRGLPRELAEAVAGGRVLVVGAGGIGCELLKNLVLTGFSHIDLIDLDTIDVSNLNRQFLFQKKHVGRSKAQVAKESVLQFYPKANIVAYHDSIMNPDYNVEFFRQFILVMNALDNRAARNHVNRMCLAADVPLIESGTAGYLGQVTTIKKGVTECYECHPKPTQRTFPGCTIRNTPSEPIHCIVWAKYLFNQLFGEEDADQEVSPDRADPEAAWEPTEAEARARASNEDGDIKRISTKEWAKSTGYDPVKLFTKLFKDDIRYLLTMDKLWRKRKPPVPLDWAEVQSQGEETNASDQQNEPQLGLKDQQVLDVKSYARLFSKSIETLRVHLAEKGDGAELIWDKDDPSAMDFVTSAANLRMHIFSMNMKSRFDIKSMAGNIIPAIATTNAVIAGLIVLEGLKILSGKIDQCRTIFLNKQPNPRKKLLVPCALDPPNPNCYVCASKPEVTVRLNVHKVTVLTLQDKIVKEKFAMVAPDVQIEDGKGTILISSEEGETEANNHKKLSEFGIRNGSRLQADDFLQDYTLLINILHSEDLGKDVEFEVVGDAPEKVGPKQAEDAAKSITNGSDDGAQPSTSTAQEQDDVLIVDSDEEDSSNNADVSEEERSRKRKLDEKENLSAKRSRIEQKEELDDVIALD
# SUMO E1/E2, sequence (P63279 whole entry): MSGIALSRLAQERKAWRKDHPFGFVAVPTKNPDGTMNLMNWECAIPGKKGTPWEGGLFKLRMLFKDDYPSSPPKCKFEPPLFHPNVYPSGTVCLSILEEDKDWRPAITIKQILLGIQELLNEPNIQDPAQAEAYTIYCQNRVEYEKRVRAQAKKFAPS
# SUMO-activating enzyme [4] = biological target: T3, SUMO-activating enzyme (Homo sapiens, UniProt Q9UBT2); assay: blockers of SAE1/SAE2–UBC9 SUMO transfer – biochemical, HTRF, uHTS, primary screen (AID 2006); assay type: protein-complex assay
# T3 sequence (Q9UBE0 whole entry): as the sequence (Q9UBE0 whole entry) above
# T3 sequence (Q9UBT2 whole entry): as the sequence (Q9UBT2 whole entry) above
# SUMO-activating enzyme [5] = biological target: T3, SUMO-activating enzyme; assay: blockers of UBC9-mediated SUMO conjugation – biochemical, AlphaScreen, SUMOylation inhibitor project, confirmation (AID 2018); assay type: functional
# [6] = biological target: T4, Tyrosine-protein phosphatase non-receptor type 22 (Homo sapiens, UniProt Q9Y2R2); assay type: functional
# T4 sequence (Q9Y2R2 whole entry): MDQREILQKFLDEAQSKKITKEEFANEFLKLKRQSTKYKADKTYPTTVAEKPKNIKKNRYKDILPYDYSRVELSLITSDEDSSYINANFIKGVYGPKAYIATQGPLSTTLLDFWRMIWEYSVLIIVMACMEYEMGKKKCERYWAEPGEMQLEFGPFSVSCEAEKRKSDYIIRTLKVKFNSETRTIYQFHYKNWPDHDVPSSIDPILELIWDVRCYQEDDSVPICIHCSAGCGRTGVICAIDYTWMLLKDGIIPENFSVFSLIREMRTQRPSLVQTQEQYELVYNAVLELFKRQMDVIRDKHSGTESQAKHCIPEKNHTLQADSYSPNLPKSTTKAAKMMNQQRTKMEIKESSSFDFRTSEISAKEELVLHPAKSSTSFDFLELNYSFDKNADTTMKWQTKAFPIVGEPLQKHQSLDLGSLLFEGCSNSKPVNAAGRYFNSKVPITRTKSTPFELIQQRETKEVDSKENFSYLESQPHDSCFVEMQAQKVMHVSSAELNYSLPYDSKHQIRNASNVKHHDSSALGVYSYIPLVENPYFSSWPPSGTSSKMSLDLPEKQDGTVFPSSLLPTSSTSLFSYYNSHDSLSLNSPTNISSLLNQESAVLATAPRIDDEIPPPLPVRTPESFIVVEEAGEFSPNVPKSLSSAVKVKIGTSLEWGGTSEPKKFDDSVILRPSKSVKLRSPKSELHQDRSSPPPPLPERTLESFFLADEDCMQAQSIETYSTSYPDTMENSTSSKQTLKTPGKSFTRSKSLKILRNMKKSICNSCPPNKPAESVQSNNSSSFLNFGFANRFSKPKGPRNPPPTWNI
# [7] = biological target: T5, Tyrosine-protein phosphatase non-receptor type 7 (Homo sapiens, UniProt P35236); assay type: functional
# T5 sequence (P35236 whole entry): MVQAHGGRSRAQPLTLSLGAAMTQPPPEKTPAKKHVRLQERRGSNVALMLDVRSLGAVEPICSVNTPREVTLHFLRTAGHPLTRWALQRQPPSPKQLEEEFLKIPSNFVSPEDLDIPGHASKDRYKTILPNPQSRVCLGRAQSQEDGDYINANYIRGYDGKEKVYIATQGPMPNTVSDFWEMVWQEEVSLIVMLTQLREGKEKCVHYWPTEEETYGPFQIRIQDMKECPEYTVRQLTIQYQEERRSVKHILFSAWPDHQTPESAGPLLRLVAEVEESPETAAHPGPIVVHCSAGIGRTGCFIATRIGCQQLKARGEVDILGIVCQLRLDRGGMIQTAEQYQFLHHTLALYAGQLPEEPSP
# [8] = biological target: T4, Tyrosine-protein phosphatase non-receptor type 22; assay type: functional; remark: listed apart in the source
# [9] = biological target: T6, Zinc finger protein mex-5 (Caenorhabditis elegans, UniProt Q9XUB2); assay: potency of MEX-5 RNA-binding blockers – biochemical, C. elegans, fluorescence polarization, dose response (AID 1960)
# T6 sequence (Q9XUB2 whole entry): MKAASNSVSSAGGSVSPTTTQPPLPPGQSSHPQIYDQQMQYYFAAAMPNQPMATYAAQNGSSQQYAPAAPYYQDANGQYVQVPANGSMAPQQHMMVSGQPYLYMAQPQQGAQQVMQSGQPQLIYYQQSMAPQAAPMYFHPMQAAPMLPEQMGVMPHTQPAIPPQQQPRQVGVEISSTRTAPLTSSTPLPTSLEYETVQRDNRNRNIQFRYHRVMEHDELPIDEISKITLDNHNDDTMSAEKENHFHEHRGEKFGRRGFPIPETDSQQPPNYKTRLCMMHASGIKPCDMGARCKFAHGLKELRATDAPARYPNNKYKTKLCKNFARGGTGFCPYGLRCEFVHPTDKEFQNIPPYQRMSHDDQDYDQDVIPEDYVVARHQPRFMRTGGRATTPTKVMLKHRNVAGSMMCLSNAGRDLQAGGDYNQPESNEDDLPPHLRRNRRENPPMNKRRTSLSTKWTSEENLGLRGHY
# [10] = biological target: T7, RNA-binding protein pos-1 (Caenorhabditis elegans, UniProt G5EF15); assay: disruptors of C. elegans POS-1 RNA interaction – biochemical, fluorescence polarization, dose response (AID 1964);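 further: purified POS-1 fused to maltose binding protein made in E. coli; potency of compounds blocking POS-1 binding to fluorescent RNA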
# T7 sequence (G5EF15 whole entry): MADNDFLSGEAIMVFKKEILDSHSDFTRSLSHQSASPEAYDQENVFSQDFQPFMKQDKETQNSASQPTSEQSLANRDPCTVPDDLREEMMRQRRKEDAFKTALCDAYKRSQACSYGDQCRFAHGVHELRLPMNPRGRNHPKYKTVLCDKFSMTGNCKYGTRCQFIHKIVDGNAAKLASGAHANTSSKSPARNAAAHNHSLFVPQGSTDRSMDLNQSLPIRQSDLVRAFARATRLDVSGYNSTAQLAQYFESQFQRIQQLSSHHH
# HEK293 [11] = assay: cells; assay type: functional, cell-based; details: Homo sapiens
# HEK293 [12] = assay: cells; assay type: functional, cell-based; details: Homo sapiens; remark: listed apart in the source
# HEK293 [13] = assay: inhibition of NOD1-driven NF-kB reporter – cell-based, luminescence, uHTS, primary screen (AID 1578); assay type: functional; details: Homo sapiens
# HEK293 [14] = assay: NOD2 signaling inhibitors in MDP-stimulated cells, cell-based, uHTS, luminescence (AID 2001); assay type: functional; details: Homo sapiens
# [15] = biological target: Lysine-specific demethylase 4C (Homo sapiens, UniProt Q9H3R0); assay: inhibition of JMJD2C H3K9me3 demethylation – biochemical, DELFIA europium, cherry-picked samples, dose response (AID 488835); assay type: functional
# Lysine-specific demethylase 4C, sequence (Q9H3R0 whole entry, the tested form may be a part): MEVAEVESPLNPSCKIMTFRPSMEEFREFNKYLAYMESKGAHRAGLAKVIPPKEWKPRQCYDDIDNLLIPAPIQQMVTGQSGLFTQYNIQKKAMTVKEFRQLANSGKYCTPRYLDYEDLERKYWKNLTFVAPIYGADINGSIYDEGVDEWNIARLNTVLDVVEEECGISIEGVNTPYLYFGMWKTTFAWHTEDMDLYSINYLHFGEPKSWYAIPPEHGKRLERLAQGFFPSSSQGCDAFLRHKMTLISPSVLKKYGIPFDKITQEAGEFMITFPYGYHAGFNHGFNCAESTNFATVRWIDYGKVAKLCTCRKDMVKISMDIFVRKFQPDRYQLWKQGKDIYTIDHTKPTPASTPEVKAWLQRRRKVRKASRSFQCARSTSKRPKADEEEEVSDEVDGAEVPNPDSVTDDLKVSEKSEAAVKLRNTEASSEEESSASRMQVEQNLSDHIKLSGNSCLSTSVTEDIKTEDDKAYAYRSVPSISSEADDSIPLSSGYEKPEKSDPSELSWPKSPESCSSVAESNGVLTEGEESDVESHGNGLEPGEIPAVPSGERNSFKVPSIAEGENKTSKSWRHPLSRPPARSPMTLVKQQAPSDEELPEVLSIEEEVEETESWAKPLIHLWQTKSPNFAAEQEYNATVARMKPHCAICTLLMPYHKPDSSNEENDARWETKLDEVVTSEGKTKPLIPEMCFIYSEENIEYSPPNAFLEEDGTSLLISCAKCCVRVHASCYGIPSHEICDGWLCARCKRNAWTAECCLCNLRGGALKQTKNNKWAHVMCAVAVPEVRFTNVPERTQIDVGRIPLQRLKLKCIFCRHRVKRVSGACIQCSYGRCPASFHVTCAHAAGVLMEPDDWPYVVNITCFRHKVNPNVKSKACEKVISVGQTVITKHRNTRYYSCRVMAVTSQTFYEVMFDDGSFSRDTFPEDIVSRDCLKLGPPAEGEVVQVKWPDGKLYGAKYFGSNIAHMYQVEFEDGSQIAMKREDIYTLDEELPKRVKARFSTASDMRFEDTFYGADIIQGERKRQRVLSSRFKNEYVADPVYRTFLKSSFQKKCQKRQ
# [16] = biological target: Nucleotide-binding oligomerization domain-containing protein 2 (Homo sapiens, UniProt Q9HC29); assay: inhibition of NOD2-driven NF-kB reporter – cell-based, luminescence, uHTS, HEK293 (AID 1566); assay type: functional
# Nucleotide-binding oligomerization domain-containing protein 2, sequence (Q9HC29 whole entry, the tested form may be a part): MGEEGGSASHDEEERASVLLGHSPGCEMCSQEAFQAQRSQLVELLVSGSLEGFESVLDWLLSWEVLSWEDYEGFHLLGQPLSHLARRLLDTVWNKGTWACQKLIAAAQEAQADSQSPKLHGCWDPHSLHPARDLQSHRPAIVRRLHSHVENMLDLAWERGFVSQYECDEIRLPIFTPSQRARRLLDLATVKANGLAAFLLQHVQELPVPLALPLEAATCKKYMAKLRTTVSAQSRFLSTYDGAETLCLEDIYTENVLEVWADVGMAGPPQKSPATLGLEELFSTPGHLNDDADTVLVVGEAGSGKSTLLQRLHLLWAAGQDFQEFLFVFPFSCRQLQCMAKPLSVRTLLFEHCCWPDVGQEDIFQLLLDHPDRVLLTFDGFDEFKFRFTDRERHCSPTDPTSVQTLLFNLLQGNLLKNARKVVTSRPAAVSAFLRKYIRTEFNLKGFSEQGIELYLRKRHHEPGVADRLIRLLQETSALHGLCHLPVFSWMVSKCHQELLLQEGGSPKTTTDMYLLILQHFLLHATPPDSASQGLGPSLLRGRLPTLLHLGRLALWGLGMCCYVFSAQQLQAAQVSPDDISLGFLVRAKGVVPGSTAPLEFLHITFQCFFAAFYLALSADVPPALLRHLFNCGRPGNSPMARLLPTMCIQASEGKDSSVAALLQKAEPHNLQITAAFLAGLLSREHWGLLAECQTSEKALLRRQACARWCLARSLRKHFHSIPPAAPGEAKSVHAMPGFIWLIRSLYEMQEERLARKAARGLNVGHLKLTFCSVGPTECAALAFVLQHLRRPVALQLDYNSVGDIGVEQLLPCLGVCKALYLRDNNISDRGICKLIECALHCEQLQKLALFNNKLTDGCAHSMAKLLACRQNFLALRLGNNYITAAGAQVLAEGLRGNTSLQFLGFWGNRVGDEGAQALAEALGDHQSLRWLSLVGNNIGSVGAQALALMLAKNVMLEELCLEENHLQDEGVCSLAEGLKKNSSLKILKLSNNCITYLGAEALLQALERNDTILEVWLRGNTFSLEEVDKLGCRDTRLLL
# [17] = non-specific 3'UTR reporter inhibition in Clone20-Shn3RL – cell-based, Renilla luciferase, cherry-picked, counter-screen for Shn3 inhibitor project, dose response (AID 624133); assay type: functional
# [18] = reduction of Shn3 3'UTR-driven luciferase in osteoblasts – cell-based, Clone20 osteoblasts, firefly luciferase, cherry-picked, dose response (AID 624132); assay type: functional;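 further: firefly luciferase luminescence from reporter carrying the Shn3 3'UTR in osteoblasts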
# HEK293 [19] = assay: cells; assay type: functional, cell-based; details: Homo sapiens; remark: listed apart in the source
# [20] = loss of viability in HepG2 cells – cell-based, CellTiter-Glo, cherry-picked, cytotoxicity control for Shn3 inhibitor project, dose response (AID 624134); assay type: functional
# [21] = biological target: T8, Nucleotide-binding oligomerization domain-containing protein 1 (Homo sapiens, UniProt Q9Y239); assay: blockers of NOD1 pathway activity – revised, SAR follow-up (AID 2333); assay type: functional
# T8 sequence (Q9Y239 whole entry): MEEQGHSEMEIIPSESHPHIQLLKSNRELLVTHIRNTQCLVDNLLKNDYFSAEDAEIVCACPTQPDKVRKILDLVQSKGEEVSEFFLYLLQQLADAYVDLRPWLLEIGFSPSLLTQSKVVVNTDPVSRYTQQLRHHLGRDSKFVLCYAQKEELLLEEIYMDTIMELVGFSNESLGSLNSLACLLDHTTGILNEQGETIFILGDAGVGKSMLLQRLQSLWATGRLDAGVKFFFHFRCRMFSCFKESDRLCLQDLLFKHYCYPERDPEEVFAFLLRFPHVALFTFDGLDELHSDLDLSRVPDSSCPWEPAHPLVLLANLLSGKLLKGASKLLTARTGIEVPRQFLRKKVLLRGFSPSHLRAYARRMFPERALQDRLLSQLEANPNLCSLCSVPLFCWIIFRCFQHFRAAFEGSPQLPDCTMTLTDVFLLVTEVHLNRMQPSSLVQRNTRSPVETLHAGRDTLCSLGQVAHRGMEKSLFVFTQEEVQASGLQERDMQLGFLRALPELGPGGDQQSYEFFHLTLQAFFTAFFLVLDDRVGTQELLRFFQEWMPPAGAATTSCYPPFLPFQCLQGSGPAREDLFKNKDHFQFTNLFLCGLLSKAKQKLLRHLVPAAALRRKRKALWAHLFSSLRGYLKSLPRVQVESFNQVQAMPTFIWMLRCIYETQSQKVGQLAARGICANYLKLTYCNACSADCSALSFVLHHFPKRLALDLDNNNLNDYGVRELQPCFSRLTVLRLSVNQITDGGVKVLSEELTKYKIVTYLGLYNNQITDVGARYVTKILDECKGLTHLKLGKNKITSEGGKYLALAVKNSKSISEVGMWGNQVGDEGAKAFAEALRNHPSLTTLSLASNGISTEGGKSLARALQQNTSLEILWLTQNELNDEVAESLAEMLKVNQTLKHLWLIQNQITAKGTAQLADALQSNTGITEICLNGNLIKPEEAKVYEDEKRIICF
smiles,measurement,setting,value
COc1ccc(-c2cc(C(=O)NCCc3ccc(O)c(O)c3)c3ccccc3n2)cc1,IC50,[1],> 100 µM (inactive)
same,IC50,[2],> 100 µM (inactive)
Cc1ccccc1NC(=O)Cn1c(O)c(N=NC(=O)c2ccccc2O)c2ccccc21,IC50,[3],1.23 µM (active)
same,IC50,SUMO E1/E2,49.7 µM (active)
same,IC50,SUMO-activating enzyme [4],9.83 µM (active)
same,IC50,SUMO-activating enzyme [5],8.06 µM (active)
COCCn1c(=N)c(S(=O)(=O)c2ccc(Br)cc2)cc2c(=O)n3ccccc3nc21,IC50,[6],> 79.4 µM (inactive)
same,IC50,[7],> 79.4 µM (inactive)
same,IC50,[8],> 79.4 µM (inactive)
same,EC50,[9],4.16 µM (active)
same,EC50,[10],> 300 µM (inconclusive)
CN(C)S(=O)(=O)N1CCC(Oc2cccc(C(=O)NC3CCCCC3)c2)CC1,IC50,HEK293 [11],11.3 µM (active)
same,IC50,HEK293 [12],18.8 µM (active)
same,EC50,HEK293 [13],6.77 µM (active)
same,IC50,HEK293 [14],17.5 µM (inactive)
COc1ccc(Cl)cc1-c1nc(N)nc(NC2CCCCC2)n1,IC50,[6],> 79.4 µM (inactive)
same,IC50,[7],> 79.4 µM (inactive)
same,IC50,[8],> 79.4 µM (inactive)
O=c1cc(N2CCc3ccccc32)[nH]c(=O)n1-c1ccccc1,AC50,[15],20.7 µM (active)
COc1cc(CC2C(=O)N(C)C(=O)N(C)C2=O)ccc1OCc1ccccc1,AC50,[15],7.97 µM (active)
CC1=C(C(=O)NC2CCCc3c2cnn3-c2cccc(C)c2C)OCCO1 (stereo not given),EC50,[16],> 20 µM (inactive)
same,AC50,[17],3.14 µM (active)
same,AC50,[18],3.49 µM (active)
same,IC50,HEK293 [19],> 20 µM (inactive)
same,AC50,[20],34.1 µM (active)
same,IC50,[21],4.06 µM (active)
same,EC50,HEK293 [13],5.36 µM (active)
same,IC50,HEK293 [14],11.6 µM (inactive)
CCOc1ccc(-n2c(SCC(=O)c3ccc(O)c(O)c3)nnc2-c2ccc(OC)cc2)cc1,IC50,[1],> 100 µM (inactive)
same,IC50,[2],> 100 µM (inactive)
